Experimental data reported in US12063929B2, “3′-alkynyl abscisic acid derivatives as ABA antagonists” (University of Saskatchewan, priority 2018, dated 2024).

Assays:
[1] = system: RIL from L. culinaris var Redberry x L. culinaris ssp. orientalis IG72595; assay: Lentil RIL germination, emergence and time to flowering (F5-F7, F7 experiment); type: in vivo
Text: • DSTG=Days from seeding to germination • DSTE=Days from seeding to Emergence • DSTF=Days from seeding to flowering • DSTH=Days from seeding to harvesting of first seed (F7 was not included because the purpose of this generation was to harvest as many seeds as possible) • GA3=gibberellic acid • DMSO=solvent required for dissolving 1019-ABA F7 Experiment
Objective: Testing the effect of soaking seeds of the F7 generation in four solutions listed below.
Treatments: water, DMSO, 1019-ABA, and 1019-ABA for 1 day followed by 100 μM GA3
Plant material: Seeds derived from a cross between L. culinaris var Redberry and L. culinaris ssp. orientalis IG72595
Experimental set up: 207 RIL-lines in total; 4 seeds (repetitions) per line; 4 treatments
Data collection: Days from seeding to germination (DSTG), days from seeding to emergence (DSTE), and Days from seeding to first flower were counted. Days from seeding to first harvest was not determined because we needed as many seeds as possible in this generation.
Days to germination (DSTG), emergence (DSTE), time to flowering (DSTF) and first harvest (DSTH) were determined during the development of a recombinant inbred line (RIL) developed from a cross between L. culinaris var Redberry and L. culinaris ssp. orientalis IG72595. The aim of the project was to find and incorporate Aphanomyces root rot resistance into the cultivated lentil, and the L. orientalis accession was identified with improved resistance. During the development of this RIL line speed breeding techniques were applied i.e. warmer temperatures, longer day length, higher light intensity, restricted pot volume etc. In generation F5, the exemplary compound became available and was tested on germination and emergence. […] The F7 generation was set up as a proper experiment with four treatments i.e. 1019, water, DMSO (solvent needed for dissolving exemplary compound 1019), and exemplary compound 1019 for one day followed by 100 μM GA3 (FIG. 12).

Hard Red Spring wheat = Hard Red Spring wheat seedling growth (root and shoot length); type: in vivo
Description: For each treatment 3 replicates of 10 seeds were plated into petri dishes lined with two filter papers and 10 mL of test solution. The covered dishes were stored at room temperature in the dark. At 72 hours, germinated seeds were scored for root length and shoot length. The following dosages were used when studying the effect of the exemplary ABA analogues of the application on wheat shoot and root growth: control 1% DMSO. 10 μM ABA, 10 μM 1019, 100 μM exemplary compound 1019, 10 μM exemplary compound 1019 plus 10 μM ABA […] and 100 μM exemplary compound 1019 plus 10 μM ABA […].

[2] = system: Canola seed (Nutrien PV200); assay: Canola seed germination assay; type: in vivo
Description: For each treatment 6 replicates of 40 seeds were plated into petri dishes lined with two filter papers and 10 mL of test solution. The covered dishes were stored at room temperature in the dark. Germinated seeds were counted every 2 days for 8 days. The following dosages were used when studying the effect of exemplary compounds on canola germination: control 1% DMSO. 10 μM ABA, 100 μM 1019, and 100 μM 1019 plus 10 μM ABA.

faba bean = assay: Faba bean seed germination and flowering; type: in vivo; details: 10 μM compound
Text: Fifty four lentil genotypes were selected for the experiment based on the existing data on the number of days it takes them to emerge and days to flowering. The seeds of each genotype were scarified before sowing and subjected to 3 treatments. VWR 415 9 cm filter papers were placed inside VWR 100 mm plastic petri dishes. Each petri dish was labeled on both the top and the bottom. Ten seed from each line was place in a labelled petri dish. Each lentil or faba bean genotype was replicated 3 times and subjected to 3 treatments (total number of experimental petri dishes=531). Thus: • 1. ABA exemplary compound solution [10 μM exemplary ABA analog compound 1019 in 1% DMSO, 99% H2O (LL10.1014.1) NaSaH (SL-1-16-1-53)] • 2. No exemplary ABA analogue solution (1% DMSO, 99% H2O) • 3. Distilled water—control
Seven milliliters of either exemplary ABA analogue solution, solution with no exemplary ABA analogue or distill water (control) was added into the corresponding labelled petri dishes containing the 10 scarified lentil seeds. For faba, bean, 10 ml because of their large seed size. The petri dishes were placed in a dark cupboard. […]
Germination was considered for a seed when a tiny radicle at least 5 mm or greater had emerged from the seed. The number of seeds that germinated was counted and recorded at 48 and 96 hours; and at 7 days. […]

[3] = system: ABA-inducible promoter of the MKKK18 gene (GUS reporter); assay: ABA-inducible gene expression, MKKK18GUS reporter plants; type: in vivo, Arabidopsis; design: antagonist effect, GUS staining: dose or concentration left out as unconfirmed
Description: Transgenic MKKK18GUS Arabidopsis plants harbor an […] (GUS) reporter gene fused to an ABA-inducible promoter of the MKKK18 gene (Okamoto et al. 2013). Six-day-old MKKK18GUS plants were treated with ABA1019 alone or both ABA1019 and ABA for 6 hours. Plants were then stained with 5-bromo-4-chloro-3-indolyl-beta-D-glucuronic acid cyclohexyl ammonium salt (X-Glc) for 14 hours, and destained with 70% ethanol.

[4] = F7 experiment, 207 lines (Table 2)
[5] = generation F7, 819 seeded (Table 1)

CC1=C(C#Cc2ccccc2)C(=O)CC(C)(C)[C@@]1(O)/C=C/C(C)=C\C(=O)O [Compound 1019, (2Z,4E)-5-((S)-1-Hydroxy-2,6,6-trimethyl-4-oxo-3-(phenylethynyl)cyclohex-2-en-1-yl)-3-methylpenta-2,4-dienoic acid]
emergence rate ([1]; F7 experiment): 100%
% Germ. [1, 4]: 99%
Germ. (number of seeds germinated) [1, 4]: 807
% Germ. ([1]; F7 experiment, 207 lines (Table 2), listed as 1019-ABA): 98.9%
seeds emerged ([1]; F7 experiment, four days after seeding (FIG. 12B)): 81%
days earlier flowering than water treatment ([1]; F7 experiment, on average): 4 days
DSTE (days from seeding to emergence) ([1]; generation CVF6): 4.03 days
DSTF (days from seeding to flowering) ([1]; generation CVF6): 26.14 days
DSTG (days from seeding to germination) ([1]; generation CVF6): 1.12 days
DSTH (days from seeding to harvesting of first seed) ([1]; generation CVF6): 44.02 days
Emerged (number of seeds emerged) ([1]; generation CVF6, 226 seeded): 226
Germ. (number of seeds germinated) ([1]; generation CVF6, 226 seeded): 226
DSTE (days from seeding to emergence) ([1]; generation F5): 4.93 days
DSTF (days from seeding to flowering) ([1]; generation F5): 28.22 days
DSTG (days from seeding to germination) ([1]; generation F5): 2.18 days
DSTH (days from seeding to harvesting of first seed) ([1]; generation F5): 45.41 days
Emerged (number of seeds emerged) ([1]; generation F5, 231 seeded): 225
Germ. (number of seeds germinated) ([1]; generation F5, 231 seeded): 230
Emerged (number of seeds emerged) [1, 5]: 791
Germ. (number of seeds germinated) [1, 5]: 816
root growth (Hard Red Spring wheat; 10 μM compound plus 10 μM ABA, 72 h (FIG. 9A)): restored root growth to close to control length
root growth (Hard Red Spring wheat; 100 μM compound alone, 72 h): not affected
shoot growth (Hard Red Spring wheat; 100 μM compound alone, 72 h): not inhibited
root growth (Hard Red Spring wheat; 100 μM compound plus 10 μM ABA, 72 h (FIG. 9A)): restored root growth to close to control length
shoot growth (Hard Red Spring wheat; compound plus 10 μM ABA, 72 h (FIG. 9B)): restored
canola seed germination ([2]; 100 μM compound alone, compared to control): did not significantly affect
canola seed germination ([2]; 100 μM compound plus 10 μM ABA): restored to near control levels
germination rates (faba bean): no significant effect
days to flowering (faba bean; transplanted at 48 hours): nor did it significantly affect
agonist activity, GUS staining ([3]; 2.5 μM applied alone, 6 hours): weak agonist activity
GUS staining compared to ABA alone ([3]; 1:1 ratio with ABA): a reduction in the GUS staining
antagonist effect, GUS staining ([3]; co-applied with ABA, dose dependent): potent antagonist effect
GUS staining compared to ABA alone ([3]; ratio of compound to ABA 10:1): abolition of the ABA GUS stain
